# Laboratory results published in patent US20220380347A1, “INHIBITORS OF CYSTEINE PROTEASES AND METHODS OF USE THEREOF” (Pardes Biosciences, Inc., priority 2020, published 2022).
# Where two headings read alike, the source gives them in different places.
# Legend:
# [1] = target: COVID-19 (nCoV-2019, SARS-CoV2) Mpro (Severe acute respiratory syndrome coronavirus 2, UniProt P0DTD1); experiment: COVID-19 (nCoV-2019, SARS-CoV2) Mpro enzymatic assay; format: biochemical; settings: 25 nM Mpro, 25 μM substrate; read-out: COVID-19 Mpro IC50
# HCov OC43 = experiment: HCoV OC43 cytopathic effect (CPE) assay, CellTiter Glo; format: cell-based, human coronavirus (HCov) OC43
# 229E Mpro = 229E Mpro (Human coronavirus 229E, UniProt P0C6X1); experiment: 229E Mpro enzymatic assay (standard methods, SARS-CoV2 Mpro assay given as exemplary); format: biochemical, human coronavirus (HCov) 229E
# 229E Mpro, sequence (P0C6X1 2966-3267): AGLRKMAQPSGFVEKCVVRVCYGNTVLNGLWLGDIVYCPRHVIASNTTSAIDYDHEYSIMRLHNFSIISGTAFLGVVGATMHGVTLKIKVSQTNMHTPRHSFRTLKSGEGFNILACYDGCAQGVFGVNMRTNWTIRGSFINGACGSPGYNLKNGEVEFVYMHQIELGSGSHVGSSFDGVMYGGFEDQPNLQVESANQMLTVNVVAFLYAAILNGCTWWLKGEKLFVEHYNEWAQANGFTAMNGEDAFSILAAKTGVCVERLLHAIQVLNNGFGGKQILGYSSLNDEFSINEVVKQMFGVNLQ
# Outline: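 IC50 for 229E Mpro by standard methods; exemplary SARS-CoV-2 protocol used C-His6-tagged Mpro from E. coli, 25 nM enzyme, 25 μM substrate (Km 13.5 μM), in Tris-HCl pH 7.3, NaCl, EDTA, TCEP, 0.1% BSA. Inhibition normalised to no-compound and full-effect controls; four-parameter fit.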
# [2] = Betacoronavirus 1, OC43, read-out: OC43 IC50 (uM) MEDIAN, median
# [3] = read-out: OC43 IC50 (uM) MEDIAN, median
structure (smiles),measurement,setting,value
"CO[C@@H]1C[C@H](C(=O)N(c2ccc(S(F)(F)(F)(F)F)cc2)C(C(=O)Nc2ccc3c(c2)OCCO3)c2cccnc2)N(C#N)C1 (single isomer, unassigned) [1170 Isomer 1]",IC50,[1],10000 to 30000 nM
same,IC50,HCov OC43; [2],2 to 10 µM
same,EC50,229E Mpro; 229E Mpro EC50,2000 to 10000 nM
"Cc1c[nH]c2cc(N(C(=O)[C@H]3C[C@@H](O)CN3C#N)C(C(=O)NC3CCC(F)(F)CC3)c3cncc(F)c3)ccc12 (single isomer, unassigned) [Compound 747b Isomer 2]",IC50,[1],2000 to 10000 nM
same,IC50,HCov OC43; [3],2 to 10 µM
same,EC50,229E Mpro; read-out: 229E Mpro EC50,< 2000 nM
"CO[C@@H]1C[C@H](C(=O)N(c2ccc(S(F)(F)(F)(F)F)cc2)C(C(=O)NC2CCC(F)(F)CC2)c2cnccc2C)N(C#N)C1 (single isomer, unassigned) [1199 Isomer 1]",IC50,[1],< 2000 nM
same,IC50,HCov OC43; [2],< 2 µM
same,EC50,229E Mpro; read-out: 229E Mpro EC50,< 2000 nM
"N#CN1CC(=O)NC[C@@H]1C(=O)N(c1ccc(S(F)(F)(F)(F)F)cc1)C(C(=O)NC1CCOCC1)c1cccnc1 (stereo partly drawn) [Compound 811, 1-cyano-5-oxo-N-[2-oxo-1-(3-pyridyl)-2-(tetrahydropyran-4-ylamino)ethyl]-N-[4-(pentafluoro-λ^6-sulfanyl)phenyl]piperazine-2-carboxamide]",IC50,[1],< 2000 nM
same,IC50,HCov OC43; [2],< 2 µM
same,EC50,229E Mpro; 229E Mpro EC50,< 2000 nM
"CC(C)(C)c1ccc(N(C(=O)[C@H]2[C@H](F)CCN2C#N)C(C(=O)NC2CCCCC2)c2cccnc2)cc1 (single isomer, unassigned) [Compound 910 Isomer 2]",IC50,[1],10000 to 30000 nM
same,IC50,HCov OC43; [3],2 to 10 µM
same,EC50,229E Mpro; read-out: 229E Mpro EC50,< 2000 nM
"CC1(O)C[C@H](C(=O)N(c2ccc(C(C)(C)C)cc2)C(C(=O)NC2CCCCC2)c2cccnc2)N(C#N)C1 (single isomer, unassigned) [Compound 284 Isomer 1]",IC50,[1],2000 to 10000 nM
same,IC50,"HCov OC43; read-out: OC43 IC50 (uM) MEDIAN, median, listed as 284 Isomer 1",10 to 30 µM
same,EC50,229E Mpro; read-out: 229E Mpro EC50,< 2000 nM
"CO[C@@H]1C[C@H](C(=O)N(c2ccc(S(F)(F)(F)(F)F)cc2)C(C(=O)NC2CCC(F)(F)CC2)c2cnccc2C)N(C#N)C1 (single isomer, unassigned) [Compound 1199]",IC50,[1],< 2000 nM
same,IC50,HCov OC43; [3],< 2 µM
same,EC50,229E Mpro; 229E Mpro EC50,< 2000 nM
"CO[C@@H]1C[C@H](C(=O)N(c2ccc(C3CC3)cc2F)C(C(=O)NC2CCC(F)(F)CC2)c2cnccc2C(F)(F)F)N(C#N)C1 (single isomer, unassigned) [Compound 1309 Isomer 1]",IC50,[1],< 2000 nM
same,IC50,HCov OC43; [2],< 2 µM
same,EC50,229E Mpro; 229E Mpro EC50,< 2000 nM
"CC(C)(C)c1ccc(N(C(=O)[C@H]2C[C@@](C)(O)CN2C#N)C(C(=O)NC2CCOCC2)c2cccnc2)cc1 (single isomer, unassigned) [1142 Isomer 2]",IC50,[1],2000 to 10000 nM
same,IC50,HCov OC43; [3],10 to 30 µM
same,EC50,229E Mpro; read-out: 229E Mpro EC50,< 2000 nM
"CC(C)(C)c1ccc(N(C(=O)[C@H]2CCCN2C#N)C(C(=O)NCCN2CCOCC2)c2cccnc2)cc1 (single isomer, unassigned) [391 Isomer 1]",IC50,[1],< 2000 nM
same,IC50,HCov OC43; [3],< 2 µM
same,EC50,229E Mpro; 229E Mpro EC50,< 2000 nM
"CO[C@@H]1C[C@H](C(=O)N(c2ccc(S(F)(F)(F)(F)F)cc2)C(C(=O)NC(C)C2CCCCN2C(=O)OC(C)(C)C)c2cccnc2)N(C#N)C1 (single isomer, unassigned) [1303 Isomer 1]",IC50,[1],2000 to 10000 nM
same,IC50,HCov OC43; [3],2 to 10 µM
same,EC50,229E Mpro; 229E Mpro EC50,< 2000 nM
"CC(C(=O)NC1CCC(F)(F)CC1)(c1cccnc1)N(C(=O)[C@H]1C[C@@](C)(O)CN1C#N)c1ccc(S(F)(F)(F)(F)F)cc1 (single isomer, unassigned) [Compound 1077 Isomer 2]",IC50,[1],< 2000 nM
same,IC50,HCov OC43; [3],< 2 µM
same,EC50,229E Mpro; read-out: 229E Mpro EC50,< 2000 nM
"N#CN1CC[C@H]2C[C@]21C(=O)N(c1ccc(S(F)(F)(F)(F)F)cc1)C(C(=O)NC1CCC(F)(F)CC1)c1cnccc1C(F)(F)F (stereo partly drawn) [Compound 1263, (1R,5S)-2-cyano-N-[2-[(4,4-difluorocyclohexyl)amino]-2-oxo-1-[4-(trifluoromethyl)-3-pyridyl]ethyl]-N-[4-(pentafluoro-λ^6-sulfanyl)phenyl]-2-azabicyclo[3.1.0]hexane-1-carboxamide]",IC50,[1],> 30000 nM
same,IC50,HCov OC43; [2],> 30 µM
same,EC50,229E Mpro; 229E Mpro EC50,10000 to 30000 nM
"N#CN1C[C@H](O)C[C@@H]1C(=O)N(c1ccc(S(F)(F)(F)(F)F)cc1F)C(C(=O)NC1CCC(F)(F)CC1)c1cccnc1 (single isomer, unassigned) [1288a Isomer 1]",IC50,[1],< 2000 nM
same,IC50,HCov OC43; [2],< 2 µM
same,EC50,229E Mpro; 229E Mpro EC50,< 2000 nM
"CN(C(=O)C(c1cccnc1)N(C(=O)[C@H]1CCCN1C#N)c1ccc(C(C)(C)C)cc1)C1CCCCC1 (stereo partly drawn) [Compound 1228, (2R)—N-(4-(tert-butyl)phenyl)-1-cyano-N-(2-(cyclohexyl(methyl)amino)-2-oxo-1-(pyridin-3-yl)ethyl)pyrrolidine-2-carboxamide]",IC50,[1],2000 to 10000 nM
same,IC50,HCov OC43; [2],10 to 30 µM
same,EC50,229E Mpro; 229E Mpro EC50,< 2000 nM
"O=C(NC1CCC(F)(F)CC1)C(c1cncc(F)c1)N(C(=O)C1CCC1(O)O)c1ccc(S(F)(F)(F)(F)F)cc1 (stereo not drawn) [Compound 1133a, N-[2-[(4,4-difluorocyclohexyl)amino]-1-(5-fluoro-3-pyridyl)-2-oxo-ethyl]-2,2-dihydroxy-N-[4-(pentafluoro-λ6-sulfanyl)phenyl]cyclobutanecarboxamide]",IC50,[1],> 30000 nM
same,IC50,HCov OC43; [2],> 30 µM
same,EC50,229E Mpro; 229E Mpro EC50,> 30000 nM
"Cc1ccncc1C(C(=O)NC1CCC(F)(F)CC1)N(C(=O)[C@H]1C[C@@](C)(O)CN1C#N)c1ccc(S(F)(F)(F)(F)F)cc1 (stereo partly drawn) [Compound 993c, (2R,4R)-1-cyano-N-[2-[(4,4-difluorocyclohexyl)amino]-1-(4-methyl-3-pyridyl)-2-oxo-ethyl]-4-hydroxy-4-methyl-N-[4-(pentafluoro-λ6-sulfanyl)phenyl]pyrrolidine-2-carboxamide]",IC50,[1],< 2000 nM
same,IC50,HCov OC43; [2],2 to 10 µM
same,EC50,229E Mpro; 229E Mpro EC50,< 2000 nM
"CO[C@@H]1C[C@H](C(=O)N(c2ccc(S(F)(F)(F)(F)F)cc2)C(C(=O)N2CCN(C(=O)OC(C)(C)C)C2)c2cccnc2)N(C#N)C1 (single isomer, unassigned) [1148d Isomer 1]",IC50,[1],2000 to 10000 nM
same,IC50,HCov OC43; [2],< 2 µM
same,EC50,229E Mpro; 229E Mpro EC50,< 2000 nM
"CC1(C)CN(C#N)[C@@H](C(=O)N(c2ccc(S(F)(F)(F)(F)F)cc2)C(C(=O)NC2CCC(F)(F)CC2)c2cncc(F)c2)CO1 (single isomer, unassigned) [1086b Isomer 1]",IC50,[1],< 2000 nM
same,IC50,HCov OC43; [2],< 2 µM
same,EC50,229E Mpro; 229E Mpro EC50,< 2000 nM
"CC(C)(C)c1ccc(N(C(=O)[C@H]2C[C@H](Oc3ccccc3)CN2C#N)C(C(=O)NC2CCCCC2)c2cccnc2)cc1 (single isomer, unassigned) [Compound 308 Isomer 1]",IC50,[1],> 30000 nM
same,IC50,HCov OC43; [2],> 30 µM
same,EC50,229E Mpro; 229E Mpro EC50,> 30000 nM
"CO[C@@H]1C[C@H](C(=O)N(c2ccc(C(C)(C)C)cc2)C(C)(C(=O)NC2CCC(F)(F)CC2)c2cccnc2)N(C#N)C1 (single isomer, unassigned) [1232 Isomer 1]",IC50,[1],2000 to 10000 nM
same,IC50,HCov OC43; [2],2 to 10 µM
same,EC50,229E Mpro; 229E Mpro EC50,2000 to 10000 nM
"N#CN1CC(=O)NCC1C(=O)N(c1ccc(S(F)(F)(F)(F)F)cc1)C(C(=O)NC1CCC(F)(F)CC1)c1cncc(F)c1 (single isomer, unassigned) [Compound 1160 Isomer 4, 1-cyano-N-[2-[(4,4-difluorocyclohexyl)amino]-1-(5-fluoro-3-pyridyl)-2-oxo-ethyl]-5-oxo-N-[4-(pentafluoro-λ^6-sulfanyl)phenyl]piperazine-2-carboxamide]",IC50,[1],2000 to 10000 nM
same,IC50,"HCov OC43; read-out: OC43 IC50 (uM) MEDIAN, median, listed as 1160 Isomer 4",2 to 10 µM
same,EC50,229E Mpro; 229E Mpro EC50,< 2000 nM
C[C@]1(O)CN[C@@H](C(=O)N(c2ccc(S(F)(F)(F)(F)F)cc2)C(C(=O)NC2CCC(F)(F)CC2)c2cnnc3ccccc23)C1 (stereo partly drawn) [Compound 711a],IC50,[1],< 2000 nM
same,IC50,HCov OC43; [2],< 2 µM
same,EC50,229E Mpro; 229E Mpro EC50,< 2000 nM
"CC(C)(C)c1ccc(N(C(=O)[C@H]2CCCN2C#N)C(C(=O)NC2CCCCC2)c2cncc(F)c2)cc1 (single isomer, unassigned) [475 Isomer 2]",IC50,[1],10000 to 30000 nM
same,IC50,HCov OC43; [3],10 to 30 µM
same,EC50,229E Mpro; 229E Mpro EC50,2000 to 10000 nM
"CO[C@@H]1C[C@H](C(=O)N(c2ccc(S(F)(F)(F)(F)F)cc2)C(C(=O)NC(C)C2CCCCN2C(=O)OC(C)(C)C)c2cccnc2)N(C#N)C1 (single isomer, unassigned) [1303 Isomer 2]",IC50,[1],< 2000 nM
same,IC50,HCov OC43; [3],< 2 µM
same,EC50,229E Mpro; 229E Mpro EC50,< 2000 nM
"CC(C)(C)c1ccc(N(C(=O)[C@H]2CCCN2C#N)C(C(=O)N2CCOCC2)c2cccnc2)cc1 (single isomer, unassigned) [Compound 959 Isomer 2]",IC50,[1],2000 to 10000 nM
same,IC50,"HCov OC43; read-out: OC43 IC50 (uM) MEDIAN, median, listed as 959 Isomer 2",2 to 10 µM
same,EC50,229E Mpro; 229E Mpro EC50,< 2000 nM
"CO[C@@H]1C[C@H](C(=O)N(c2ccc(S(F)(F)(F)(F)F)cc2)C(C(=O)NCC(=O)N2CCCC2)c2cccnc2)N(C#N)C1 (stereo partly drawn) [Compound 1182, (2R,4R)-1-cyano-4-methoxy-N-[2-oxo-2-[(2-oxo-2-pyrrolidin-1-yl-ethyl)amino]-1-(3-pyridyl)ethyl]-N-[4-(pentafluoro-λ6-sulfanyl)phenyl]pyrrolidine-2-carboxamide]",IC50,[1],< 2000 nM
same,IC50,HCov OC43; [2],< 2 µM
same,EC50,229E Mpro; 229E Mpro EC50,< 2000 nM
"CC(C)(C)c1ccc(N(C(=O)[C@H]2CCC(C)(C)N2C#N)C(C(=O)NC2CCCCC2)c2cccnc2)cc1 (single isomer, unassigned) [Compound 262 Isomer 1]",IC50,[1],> 30000 nM
same,IC50,"HCov OC43; read-out: OC43 IC50 (uM) MEDIAN, median, listed as 262 Isomer 1",> 30 µM
same,EC50,229E Mpro; 229E Mpro EC50,> 30000 nM
"CC(C)(C)c1ccc(N(C(=O)[C@H]2C[C@@H](O)CN2C#N)C(C(=O)NC2CCCCC2)c2cncc(Cl)c2)cc1 (single isomer, unassigned) [675 Isomer 2]",IC50,[1],2000 to 10000 nM
same,IC50,HCov OC43; [3],2 to 10 µM
same,EC50,229E Mpro; read-out: 229E Mpro EC50,< 2000 nM
